Experimental data taken from ChEMBL document CHEMBL5465560, “Selectivity Literature for EUbOPEN Chemogenomic Library” (2024).
One block for each compound: values may come before it.

What was measured:
[1] = biological target: Epidermal growth factor receptor (Homo sapiens, UniProt P00533); experiment: Selectivity interaction (Millipore kinase profiler) EUB0000124b EGFR; conditions: at 10 µM
[2] = biological target: Kappa-type opioid receptor (Homo sapiens, UniProt P41145); experiment: Selectivity interaction (Panel of kinases, GPCRs, ion channels and transporters (enzymatic assay)) EUB0000266bCl OPRK1
[3] = biological target: cAMP-dependent protein kinase catalytic subunit alpha (Homo sapiens, UniProt P17612); experiment: Selectivity interaction (Ambit KINOMEscan and KiNATiv profiling in Jurkat cells) EUB0000090b PRKACA; format: cell-based; conditions: at 1 µM
[4] = biological target: T1, Aurora kinase A (Homo sapiens) (UniProt O14965); experiment: Selectivity interaction (ActivX KiNativ screen (kinase selectivity in THP-1 cell lysates)) EUB0000639a STK6; format: subcellular; conditions: lysate, at 0.04 µM
T1 sequence (whole entry): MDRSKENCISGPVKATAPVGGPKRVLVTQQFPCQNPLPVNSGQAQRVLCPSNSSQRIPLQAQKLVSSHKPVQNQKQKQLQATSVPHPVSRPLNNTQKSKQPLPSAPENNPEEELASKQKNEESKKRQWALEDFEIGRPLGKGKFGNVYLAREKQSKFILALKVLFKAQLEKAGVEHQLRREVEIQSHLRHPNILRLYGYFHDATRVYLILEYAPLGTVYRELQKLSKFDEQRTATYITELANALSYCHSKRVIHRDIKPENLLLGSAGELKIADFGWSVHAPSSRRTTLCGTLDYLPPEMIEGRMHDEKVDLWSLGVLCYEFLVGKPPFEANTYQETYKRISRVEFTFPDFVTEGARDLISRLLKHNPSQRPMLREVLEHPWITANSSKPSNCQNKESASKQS

[5] = biological target: T2, Phosphatidylinositol 3-kinase C2 domain-containing subunit gamma (Homo sapiens) (UniProt O75747); experiment: Selectivity interaction (KinomeScan (DiscoverX)) EUB0001079a PIK3C2G; conditions: at 1 µM
T2 sequence (whole entry): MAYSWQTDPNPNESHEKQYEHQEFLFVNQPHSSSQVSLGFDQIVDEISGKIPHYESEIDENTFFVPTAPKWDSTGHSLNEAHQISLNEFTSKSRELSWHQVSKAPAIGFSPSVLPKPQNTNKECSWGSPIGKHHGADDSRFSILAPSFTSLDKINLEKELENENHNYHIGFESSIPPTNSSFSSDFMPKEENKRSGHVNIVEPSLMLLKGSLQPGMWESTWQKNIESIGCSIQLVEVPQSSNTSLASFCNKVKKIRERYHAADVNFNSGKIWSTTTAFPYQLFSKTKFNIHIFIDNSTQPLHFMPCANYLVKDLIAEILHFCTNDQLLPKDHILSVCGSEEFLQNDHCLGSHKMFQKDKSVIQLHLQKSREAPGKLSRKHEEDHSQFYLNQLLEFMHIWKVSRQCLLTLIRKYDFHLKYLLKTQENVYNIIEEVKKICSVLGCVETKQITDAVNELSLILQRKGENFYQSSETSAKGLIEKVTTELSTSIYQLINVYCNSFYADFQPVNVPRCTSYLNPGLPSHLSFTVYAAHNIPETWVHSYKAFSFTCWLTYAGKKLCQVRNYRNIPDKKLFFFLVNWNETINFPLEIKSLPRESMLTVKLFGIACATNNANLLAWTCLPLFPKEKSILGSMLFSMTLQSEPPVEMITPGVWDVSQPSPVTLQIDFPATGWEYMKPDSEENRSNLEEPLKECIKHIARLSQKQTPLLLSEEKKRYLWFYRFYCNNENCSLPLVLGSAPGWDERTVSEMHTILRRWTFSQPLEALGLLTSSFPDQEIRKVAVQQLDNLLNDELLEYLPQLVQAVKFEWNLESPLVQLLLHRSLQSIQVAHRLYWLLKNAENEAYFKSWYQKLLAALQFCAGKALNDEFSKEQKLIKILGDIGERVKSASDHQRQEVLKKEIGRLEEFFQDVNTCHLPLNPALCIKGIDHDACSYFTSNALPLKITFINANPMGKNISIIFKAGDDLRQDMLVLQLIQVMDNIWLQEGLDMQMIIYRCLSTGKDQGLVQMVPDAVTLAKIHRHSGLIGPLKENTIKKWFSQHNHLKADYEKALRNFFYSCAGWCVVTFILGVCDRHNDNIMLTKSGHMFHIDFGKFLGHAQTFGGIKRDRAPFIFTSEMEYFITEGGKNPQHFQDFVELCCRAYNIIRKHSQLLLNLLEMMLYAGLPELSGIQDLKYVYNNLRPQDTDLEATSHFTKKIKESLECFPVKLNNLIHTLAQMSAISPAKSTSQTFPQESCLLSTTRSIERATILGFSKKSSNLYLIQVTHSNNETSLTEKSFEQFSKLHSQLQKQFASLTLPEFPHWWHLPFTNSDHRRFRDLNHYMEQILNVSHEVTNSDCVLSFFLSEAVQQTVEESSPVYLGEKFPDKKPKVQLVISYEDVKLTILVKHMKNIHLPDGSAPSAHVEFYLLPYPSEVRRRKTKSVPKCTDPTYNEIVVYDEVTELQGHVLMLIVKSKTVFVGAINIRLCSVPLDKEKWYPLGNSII

[6] = biological target: T3, Protein kinase C zeta type (Homo sapiens) (UniProt Q05513); experiment: Selectivity interaction (ProQinase) EUB0000171b PRKCZ
T3 sequence (whole entry): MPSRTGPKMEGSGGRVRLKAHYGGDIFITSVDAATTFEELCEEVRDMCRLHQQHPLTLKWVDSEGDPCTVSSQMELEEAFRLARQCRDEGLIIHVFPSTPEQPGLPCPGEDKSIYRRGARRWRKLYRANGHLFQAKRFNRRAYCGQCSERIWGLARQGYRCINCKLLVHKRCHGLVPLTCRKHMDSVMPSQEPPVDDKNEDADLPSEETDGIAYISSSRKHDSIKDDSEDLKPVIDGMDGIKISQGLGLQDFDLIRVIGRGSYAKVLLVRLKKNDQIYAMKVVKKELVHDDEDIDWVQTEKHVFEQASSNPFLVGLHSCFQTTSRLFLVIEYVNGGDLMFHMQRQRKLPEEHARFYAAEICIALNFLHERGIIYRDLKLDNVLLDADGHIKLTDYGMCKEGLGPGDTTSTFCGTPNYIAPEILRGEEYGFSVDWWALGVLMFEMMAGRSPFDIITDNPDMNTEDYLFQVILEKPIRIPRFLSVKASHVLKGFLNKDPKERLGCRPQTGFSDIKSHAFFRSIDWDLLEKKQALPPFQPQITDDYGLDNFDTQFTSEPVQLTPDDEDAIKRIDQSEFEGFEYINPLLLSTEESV

[7] = biological target: Serine/threonine-protein kinase PLK1 (Homo sapiens, UniProt P53350); experiment: Selectivity interaction (Kinase panel (KiNativ target engagement assay in Jurkat cells)) EUB0001635a PLK1; format: cell-based; conditions: Selectivity number of off-targets 0.0, Selectivity number of targets 233.0, Source Knowledge https://www.sciencedirect.com/science/article/pii/S2451945619300674?via%3Dihub, at 1 µM
Serine/threonine-protein kinase PLK1, sequence (P53350 whole entry): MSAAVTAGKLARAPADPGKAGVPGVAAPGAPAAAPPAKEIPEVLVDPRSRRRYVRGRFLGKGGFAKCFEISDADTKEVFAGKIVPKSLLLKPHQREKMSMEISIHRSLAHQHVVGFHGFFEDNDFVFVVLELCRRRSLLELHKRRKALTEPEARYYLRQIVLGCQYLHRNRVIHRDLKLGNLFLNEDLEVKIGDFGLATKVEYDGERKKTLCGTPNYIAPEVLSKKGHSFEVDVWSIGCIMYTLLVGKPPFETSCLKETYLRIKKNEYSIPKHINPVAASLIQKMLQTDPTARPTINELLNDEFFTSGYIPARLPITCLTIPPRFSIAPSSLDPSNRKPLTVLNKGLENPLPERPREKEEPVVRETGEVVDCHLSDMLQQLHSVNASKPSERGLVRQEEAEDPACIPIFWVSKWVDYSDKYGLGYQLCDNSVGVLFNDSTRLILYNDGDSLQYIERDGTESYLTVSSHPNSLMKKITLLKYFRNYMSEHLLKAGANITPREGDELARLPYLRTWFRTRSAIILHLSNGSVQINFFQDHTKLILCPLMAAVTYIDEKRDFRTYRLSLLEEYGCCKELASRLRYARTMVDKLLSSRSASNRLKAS

Kappa-type opioid receptor, sequence (P41145 whole entry): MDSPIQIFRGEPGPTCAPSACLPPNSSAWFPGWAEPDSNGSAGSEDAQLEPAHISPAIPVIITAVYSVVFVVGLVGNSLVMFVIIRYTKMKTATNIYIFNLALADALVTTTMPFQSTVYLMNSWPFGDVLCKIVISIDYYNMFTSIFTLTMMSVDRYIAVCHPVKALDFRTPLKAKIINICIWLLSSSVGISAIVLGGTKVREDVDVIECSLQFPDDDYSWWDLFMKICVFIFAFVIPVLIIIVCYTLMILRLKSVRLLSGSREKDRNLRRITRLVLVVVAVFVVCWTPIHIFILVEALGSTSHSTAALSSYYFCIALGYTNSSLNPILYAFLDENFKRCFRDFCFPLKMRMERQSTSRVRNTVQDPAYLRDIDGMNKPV
Epidermal growth factor receptor, sequence (P00533 whole entry): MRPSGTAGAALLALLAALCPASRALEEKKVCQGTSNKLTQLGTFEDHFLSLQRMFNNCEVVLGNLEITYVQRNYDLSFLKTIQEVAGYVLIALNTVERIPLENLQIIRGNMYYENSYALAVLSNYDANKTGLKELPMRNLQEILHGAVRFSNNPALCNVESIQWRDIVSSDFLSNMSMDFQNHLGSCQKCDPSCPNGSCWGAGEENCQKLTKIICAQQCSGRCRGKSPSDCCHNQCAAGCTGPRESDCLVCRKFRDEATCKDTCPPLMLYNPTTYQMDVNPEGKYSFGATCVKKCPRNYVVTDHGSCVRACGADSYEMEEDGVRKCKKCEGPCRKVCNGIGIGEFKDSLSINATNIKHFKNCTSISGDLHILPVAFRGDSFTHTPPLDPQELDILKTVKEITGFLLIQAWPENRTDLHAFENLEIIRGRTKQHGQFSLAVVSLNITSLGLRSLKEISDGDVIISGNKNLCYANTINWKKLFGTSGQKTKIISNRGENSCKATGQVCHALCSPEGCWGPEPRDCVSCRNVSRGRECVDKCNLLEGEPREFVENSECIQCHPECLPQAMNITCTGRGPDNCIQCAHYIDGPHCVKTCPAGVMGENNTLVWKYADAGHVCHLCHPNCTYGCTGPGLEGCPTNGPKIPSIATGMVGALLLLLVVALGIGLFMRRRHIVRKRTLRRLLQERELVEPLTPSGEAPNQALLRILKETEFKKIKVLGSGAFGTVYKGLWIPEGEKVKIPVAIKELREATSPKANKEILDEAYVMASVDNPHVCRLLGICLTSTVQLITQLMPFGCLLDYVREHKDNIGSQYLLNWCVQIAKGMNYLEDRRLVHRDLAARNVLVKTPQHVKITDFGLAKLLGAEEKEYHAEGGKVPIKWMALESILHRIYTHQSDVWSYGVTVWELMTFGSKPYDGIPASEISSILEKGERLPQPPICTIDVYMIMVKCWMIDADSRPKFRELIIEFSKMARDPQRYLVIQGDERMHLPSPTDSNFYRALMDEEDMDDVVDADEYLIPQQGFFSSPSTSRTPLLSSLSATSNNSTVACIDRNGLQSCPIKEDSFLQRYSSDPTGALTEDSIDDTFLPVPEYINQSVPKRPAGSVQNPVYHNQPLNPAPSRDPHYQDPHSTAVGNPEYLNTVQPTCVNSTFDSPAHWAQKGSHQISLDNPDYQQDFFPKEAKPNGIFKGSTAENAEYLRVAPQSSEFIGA

Compound: CC(=O)Nc1cccc(-n2c(=O)n(C3CC3)c(=O)c3c(Nc4ccc(I)cc4F)n(C)c(=O)c(C)c32)c1
% of control [1]: 104%

Compound: CN(C)C/C=C/C(=O)Nc1ccc(C(=O)N2CCCC(Nc3ncc(Cl)c(-c4c[nH]c5ccccc45)n3)C2)cc1 (stereo not drawn)
% of control [3]: 100%

Compound: Nc1cnc(N2CCc3cc(S(=O)(=O)Nc4c(F)cc(Cl)cc4F)cc(N4CCCC4=O)c32)nc1 [TP-020n]
% of control [5]: 78%

Compound: C=CC(=O)Nc1ccc(C(=O)Nc2[nH]nc3c2CN(C(=O)N[C@H](CN(C)C)c2ccccc2)C3(C)C)cc1
% of engagement [7]: 8.1%

Continued, values first:

pXC50 [2]: > 4 M
Compound: CCn1c(-c2nc3cc(C(=O)N4CCCC(N)C4)ccc3n2C)cc2ccccc21 (stereo not drawn)

% of inhibition [4]: -1.3%
Compound: CC[C@@H]1[C@H](F)C(=O)N[C@@H]1COc1nccc2cc(C(N)=O)c(OC)cc12 [ZIMLOVISERTIB]

% of control ([6]; at 1 µM): 87%
% of control ([6]; at 5 µM): 86%
Compound: C=CC(=O)Nc1cccc(C(=O)Nc2ccc(Nc3cc(-c4[nH]c(SC)nc4C)ccn3)cc2)c1
